Test results taken from patent US4277498A, “Amides” (Burroughs Wellcome Co., priority 1976, dated 1981).
Structures can show the parent of a compound that is named as a salt. Where two headings read alike, the source gives them in different places.

Columns and labels:
[1] = tetrabenazine-induced sedation test in the rat (general statements on antidepressant activity); type: in vivo; settings: acceptable salts
in vivo = settings: mouse, po, mice, p.o. as salt in saline, deaths within two days
Method: Several groups of mice were treated with specific doses of compounds of formula (I) as orally administered salts in saline solution. After treatment of each group with a different dose of a specific compound the number of mice dead in each group within two days was noted. […] The LD50 value is the lethal dose required to kill half of the treated animals.
The procedure was repeated with other groups of mice for other compounds of formula (I).

[2] = Anti-tetrabenazine test (ptosis and sedation), Example 37; type: in vivo, Female albino mice; settings: Mus musculus, po
Method: Female albino mice were grouped, six per cage. Compounds of formula (I) as the respective salt in saline solution were administered orally, thirty minutes prior to the administration of tetrabenazine, 50 mg/kg, i.p. The animals were scored according to the method of V. G. Vernier, H. M. Hanson and C. A. Stone: Psychosomatic medicine, ch.

[3] = ptosis, mice, p.o. as salt in saline, 30 min before tetrabenazine 50 mg/kg i.p., read-out: Anti-depressant activity, approx. ED50 values, p.o., Ptosis
[4] = sedation, mice, p.o. as salt in saline, 30 min before tetrabenazine 50 mg/kg i.p., read-out: Anti-depressant activity, approx. ED50 values, p.o., Sedation

Compound	LD50 at 48 h (in vivo) [mg/kg]	ED50 [2, 3] [mg/kg]	ED50 [2, 4] [mg/kg]	further results
CCCCCC(C)NC(=O)CN (stereo not drawn) [2-amino-N-(1-methylhexyl)acetamide]				antidepressant activity in the tetrabenazine-induced sedation test [1]: have shown antidepressant activity
CC(C)CCCC(C)(C)NC(=O)CN [2-amino-N-(1,1,5-trimethylhexyl)acetamide]				antidepressant activity in the tetrabenazine-induced sedation test [1]: have shown antidepressant activity
CC1(NC(=O)CN)CCCCCC1 [Example 4, hydrogen oxalate, 2-Amino-N-(1-methylcycloheptyl)acetamide]	1110	~5	~10.6	
CC(C)CCCC(C)(C)NC(=O)CN [Example 12, hydrogen succinate, 2-amino-N-(1,1,5-trimethylhexyl)acetamide]		~8	~2.5	
CC(C)(CC1CCCC1)NC(=O)CN [2-amino-N-(2-cyclopentyl-1,1-dimethylethyl)acetamide]				antidepressant activity in the tetrabenazine-induced sedation test [1]: have shown antidepressant activity
CC(CC1CCCCC1)NC(=O)CN (racemic) [Example 9, hydrogen fumarate, (±)-2-Amino-N-(2-cyclohexyl)-1-methylethyl)acetamide hydrogen fumarate]		~6	~7.5	
CCCCCC(C)NC(=O)CN.O=C(O)CCC(=O)O (stereo not drawn) [Example 8, hydrogen succinate, 2-Amino-N-(1-methylhexyl)acetamide hydrogen succinate]	500	~3.8	~2.7	
CC1(NC(=O)CN)CCCCC1 [Example 3, hydrogen oxalate, 2-Amino-N-(1-methylcyclohexyl)acetamide]	> 2000	~6.92	~5.69	
CCCC(C)CC(C)(C)NC(=O)CN (stereo not drawn) [Example 6, hydrogen fumarate, 2-amino-N-(1,1,3-trimethylhexyl)acetamide]		~18.7	~9.5	
CCCCCCC(C)(C)NC(=O)CN [Example 7, hydrogen fumarate, 2-Amino-N-(1,1-dimethylheptyl)acetamide]	1000			
CCCCCC(C)(C)NC(=O)CN [Example 2, hydrogen oxalate, 2-amino-N-(1,1-dimethylhexyl)acetamide]		~3.5	~2.3	
CC(C)(CC1CCCC1)NC(=O)CN.CCO.O=C(O)/C=C/C(=O)O [Example 11, hydrogen fumarate, 2-Amino-N-(1,1-dimethyl-2-cyclopentylethyl)acetamide hydrogen fumarate monoethanolate]	575			ED50 ([2]; read-out: Anti-depressant activity, approx. ED50 values, p.o., Ptosis): ~5 mg/kg; ED50 ([2]; read-out: Anti-depressant activity, approx. ED50 values, p.o., Sedation): ~5 mg/kg
CCCCC(C)(C)NC(=O)CN.O=C(O)C(=O)O [Example 5, hydrogen oxalate, 2-amino-N-(1,1-dimethylpentyl)acetamide hydrogen oxalate]	536	~20	~10	
